Experimental data published in paper PMC12214830, “The human RIF1-Long isoform interacts with BRCA1 to promote recombinational fork repair under DNA replication stress” (Nature Communications, 2025).

Experiments:
[1] = test system: tandem BRCT domains of TOPBP1; experiment: fluorescence polarisation, tandem BRCT domains of TOPBP1; type: binding; conditions: peptide 200 nM, 25 mM HEPES pH 7.5, 200 mM NaCl
Method: (§1) Recombinant BRCT2 domain proteins were expressed as N-terminally HIS-SUMO tagged constructs from a modified pET15b vector in Escherichia coli BL21(DE3) host strain (Novagen). Cell pellets were re-suspended in lysis buffer containing 50 mM HEPES pH 7.5, 200 mM NaCl, 0.5 mM TCEP and supplemented with 10 U DNASE Turbo (ThermoFisher), then disrupted by sonication and the resulting lysate clarified by centrifugation at 40,000 × g for 60 min at 4 °C. […]
(§2) For Fluorescence Polarisation experiments, a Superdex 75 16/60 size exclusion column (GE Healthcare) was used to purify the His6-SUMO-BRCT2 proteins to homogeneity in 25 mM HEPES pH 7.5, 200 mM NaCl, 1 mM EDTA, 0.25 mM TCEP, 0.02% (v/v) Tween-20.
(§3) Fluorescein-labelled peptides (Flu-RIF1pS2265 Flu-[…](pS)PKFKSSK, Flu-BRIP1pS990 Flu-[…](pS)PTFNKQT and Flu-H2AXpS140 Flu-[…](pS)QEY, where (pS) is phosphorylated Serine) (Peptide Protein Research Ltd, Bishops Waltham, UK) at a concentration of 200 nM, were incubated at room temperature with increasing concentrations of His6-SUMO-BRCT2 protein in 25 mM HEPES pH 7.5, 200 mM NaCl, 1 mM EDTA, 0.25 mM TCEP, 0.02% (v/v) Tween-20 in a black 96-well polypropylene plate (VWR, Lutterworth, UK). […] Fluorescence polarisation was measured in a CLARIOstar multimode microplate reader (BMG Labtech GmbH, Offenburg, Germany). […]

[2] = test system: tandem BRCT domains of MDC1; experiment: fluorescence polarisation, tandem BRCT domains of MDC1; type: binding; conditions: peptide 200 nM, 25 mM HEPES pH 7.5, 200 mM NaCl
Method: as §1, §2, §3

[3] = test system: BRCA1-BRCT domain (His6-SUMO-BRCT2); experiment: fluorescence polarisation, tandem BRCT domains of BRCA1; type: binding, human
Method: Recombinant BRCT2 domain proteins were expressed as N-terminally HIS-SUMO tagged constructs from a modified pET15b vector in Escherichia coli BL21(DE3) host strain (Novagen). Cell pellets were re-suspended in lysis buffer containing 50 mM HEPES pH 7.5, 200 mM NaCl, 0.5 mM TCEP and supplemented with 10 U DNASE Turbo (ThermoFisher), then disrupted by sonication and the resulting lysate clarified by centrifugation at 40,000 × g for 60 min at 4 °C. The supernatant was applied to a 5 ml HiTrap TALON crude column (GE Healthcare, Little Chalfont, UK), washed first with buffer containing 50 mM HEPES pH 7.5, 1000 mM NaCl, 0.5 mM TCEP, followed by lysis buffer supplemented with 10 mM imidazole, with any retained protein then eluted by application of the same buffer supplemented with 250 mM imidazole. The eluted protein was concentrated before further purification by size exclusion chromatography.
as §2
Fluorescein-labelled peptides (Flu-RIF1pS2265 Flu-[…](pS)PKFKSSK, Flu-BRIP1pS990 Flu-[…](pS)PTFNKQT and Flu-H2AXpS140 Flu-[…](pS)QEY, where (pS) is phosphorylated Serine) (Peptide Protein Research Ltd, Bishops Waltham, UK) at a concentration of 200 nM, were incubated at room temperature with increasing concentrations of His6-SUMO-BRCT2 protein in 25 mM HEPES pH 7.5, 200 mM NaCl, 1 mM EDTA, 0.25 mM TCEP, 0.02% (v/v) Tween-20 in a black 96-well polypropylene plate (VWR, Lutterworth, UK). Incubation with Lambda phosphatase (NEB, Hitchin, UK) supplemented with 1 mM MnCl2 was used to remove the phosphorylation on the peptides. Fluorescence polarisation was measured in a CLARIOstar multimode microplate reader (BMG Labtech GmbH, Offenburg, Germany). Binding curves represent the mean of 4 independent experiments, with error bars of 1 standard deviation. […]

[4] = test system: tandem BRCT domains of 53BP1; experiment: fluorescence polarisation, tandem BRCT domains of 53BP1; type: binding; conditions: peptide 200 nM, 25 mM HEPES pH 7.5, 200 mM NaCl
Method: as §1, §2, §3

Flu-GYGFLSPGSR(pS)PKFKSSK [RIF1-L phosphoS^2265PKF peptide, fluorescein-labelled RIF1-L-derived phosphopeptide]
binding to tandem BRCT domains of TOPBP1 [1]: did not bind
binding to tandem BRCT domains of MDC1 [2]: did not bind
binding to BRCA1-BRCT ([3]; fluorescein-labelled peptide 200 nM, 25 mM HEPES pH 7.5, 200 mM NaCl, room temperature, mean of 4 independent experiments): bound strongly
interaction affinity relative to BRIP1 phospho-peptide ([3]; peptide 200 nM, 25 mM HEPES pH 7.5, 200 mM NaCl): comparable to that for a phospho-peptide from BRIP1
binding to BRCA1-BRCT after λ phosphatase ([3]; peptide treated with Lambda phosphatase, 1 mM MnCl2): abolished binding
binding to tandem BRCT domains of 53BP1 [4]: did not bind
